Experimental data reported in article PMC7870626, “Neurotoxicity and underlying cellular changes of 21 mitochondrial respiratory chain inhibitors” (Archives of Toxicology, 2021).
Like-named read-outs stand apart in the source and are kept apart here.

Columns and labels:
cI [1] = molecular target: T1, cI (Homo sapiens, UniProt O75251+O75306+P03886); type: cell-based; conditions: permeabilized LUHMES; capsaicin 50 µM, mepronil 100 µM
T1 construct: endogenous in cells; host or cells: LUHMES cells, digitonin-permeabilized
T1 sequence (O75306 34-463): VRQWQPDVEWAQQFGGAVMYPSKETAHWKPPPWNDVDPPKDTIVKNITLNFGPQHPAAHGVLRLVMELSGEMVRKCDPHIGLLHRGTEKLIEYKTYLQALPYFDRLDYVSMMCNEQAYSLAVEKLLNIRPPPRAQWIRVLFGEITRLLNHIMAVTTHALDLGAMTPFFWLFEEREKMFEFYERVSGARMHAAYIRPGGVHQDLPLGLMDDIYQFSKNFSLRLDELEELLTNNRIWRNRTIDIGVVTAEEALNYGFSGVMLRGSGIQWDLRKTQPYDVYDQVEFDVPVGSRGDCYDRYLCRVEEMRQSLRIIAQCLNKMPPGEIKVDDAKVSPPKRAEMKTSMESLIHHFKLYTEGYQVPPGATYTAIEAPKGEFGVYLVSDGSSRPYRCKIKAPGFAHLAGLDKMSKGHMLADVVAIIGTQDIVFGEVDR
T1 sequence (P03886 whole entry): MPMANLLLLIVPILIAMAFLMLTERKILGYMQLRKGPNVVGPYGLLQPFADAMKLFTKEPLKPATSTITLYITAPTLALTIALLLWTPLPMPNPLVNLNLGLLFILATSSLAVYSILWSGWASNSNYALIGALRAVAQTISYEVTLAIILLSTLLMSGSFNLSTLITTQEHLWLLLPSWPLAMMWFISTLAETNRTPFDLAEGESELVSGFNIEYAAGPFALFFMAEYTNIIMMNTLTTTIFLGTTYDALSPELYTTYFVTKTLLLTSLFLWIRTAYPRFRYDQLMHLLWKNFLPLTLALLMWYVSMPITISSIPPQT
T1 sequence (O75251 39-213): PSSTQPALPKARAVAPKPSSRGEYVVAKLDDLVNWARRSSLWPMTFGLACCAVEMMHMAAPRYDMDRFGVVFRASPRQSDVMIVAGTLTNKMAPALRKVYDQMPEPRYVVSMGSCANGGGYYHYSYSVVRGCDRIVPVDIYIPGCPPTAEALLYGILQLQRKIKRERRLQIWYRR
Description: (§1) To investigate individual respiratory chain complexes, a method developed earlier and described extensively was used (Delp et al. [2019]). In brief, LUHMES cells were seeded at a density of 205,000 cells/cm^2 in PM into Agilent Seahorse XFe24-well plates. […] To reduce data variability, internal normalization of the OCR of each well was done relative to its value after equilibration.

cI [2] = tested on: cI; set-up: method as in van der Stel et al. 2020; conditions: liver and kidney cells ref van der Stel et al. 2020; read-out: IC50 for inhibition of cI; cited from earlier work
LUHMES cells [3] = type: cell-based, human; conditions: 24 h, vs 0.1% DMSO; for log2FoldChange AARS: gene AARS; for log2FoldChange AASDHPPT: gene AASDHPPT; for log2FoldChange AATF: gene AATF; for log2FoldChange ABCA1: gene ABCA1; for log2FoldChange ABCA6: gene ABCA6
Description: Cells were cultured and treated as described above for the NeuriTox assay. On d3, after 24 h treatment, culture medium was replaced by 33 µl/well 1 × Biospyder lysis buffer. After 15 min at room temperature, plates were sealed and frozen at -80 °C to complete lysis. Samples were analyzed at Bioclavis (Glasgow) using the TempO-Seq technique and the EU-ToxRisk v2.0 gene probe panel covering ca. 3000 genes (Yeakley et al. [2017]). All genes are listed in the supplementary excel file (containing also all gene regulations). Briefly, a 50 bp fragment of the target gene was amplified. The amplification step also introduced sample-specific barcodes. This allowed pooling of all samples and standard next-generation sequencing of the ensemble. Afterward, adapters were used to allocate the sequenced fragments to the correct samples. Finally, the alignment of all sequenced fragments (FASTQ files) for each sample to the collection of reference 50 bp oligonucleotides was performed for the quantification of reads per gene, also known as the read count values. In a pre-filtering step, samples with a total count < 0.2 million and genes with an average count < 1.5 were removed.
To correct for both read depth and RNA composition, the DESeq2′s median of ratios normalization was applied. The analysis of differentially expressed genes (DEG) of each treatment against the control group was done by the Wald test implemented in DESeq2/R (Love et al. [2014]), including an FDR correction for p-adjusted ≤ 0.05. […] A curve was fit through these concentration–response data to obtain EC10DEG. For comparability, all DEG data were normalized to a positive control. […] The EC10DEG was calculated using an established online open access BMC calculator (BMCeasy) (Krebs et al. [2020]).

LUHMES cells [4] = test: Mitochondrial respiration of intact LUHMES cells (Seahorse OCR); type: cell-based, human; conditions: d3 LUHMES, acute treatment, highest non-cytotoxic concentration (cII inhibitors 100 µM)
Description: Respiration of intact LUHMES cells was performed as described earlier (Delp et al. [2018a], [2019]). Briefly, 48 h differentiated cells were re-seeded into Agilent Seahorse XFe24-well plates in DM without cAMP and GDNF at a density of 100,000 cells/cm^2 and cultured for 24 h before the assay was initiated. Inhibition of respiration was calculated as the difference between baseline measurements (i.e., after equilibration, last measurement before treatment) and the first measurement after treatment with the test compound.

cII [5] = tested on: cII; set-up: method as in van der Stel et al. 2020; conditions: read-out: Concentration at which 50% inhibition was observed; HepG2 cells ref van der Stel et al. 2020; cited from earlier work
cII [6] = molecular target: T2, cII (Homo sapiens, UniProt O14521+P21912+Q99643); test: Respiratory chain complex activity in permeabilized LUHMES cells: cII; type: cell-based; conditions: mepronil at 100 µM
T2 construct: endogenous in cells; host or cells: LUHMES cells, digitonin-permeabilized
T2 sequence (P21912 29-280): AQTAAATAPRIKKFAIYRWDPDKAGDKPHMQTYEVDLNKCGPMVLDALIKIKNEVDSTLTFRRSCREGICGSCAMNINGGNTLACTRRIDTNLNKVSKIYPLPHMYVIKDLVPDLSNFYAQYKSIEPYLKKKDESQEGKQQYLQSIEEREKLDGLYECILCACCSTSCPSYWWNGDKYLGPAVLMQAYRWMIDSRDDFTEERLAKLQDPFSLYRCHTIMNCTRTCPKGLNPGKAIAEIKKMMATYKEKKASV
T2 sequence (Q99643 30-169): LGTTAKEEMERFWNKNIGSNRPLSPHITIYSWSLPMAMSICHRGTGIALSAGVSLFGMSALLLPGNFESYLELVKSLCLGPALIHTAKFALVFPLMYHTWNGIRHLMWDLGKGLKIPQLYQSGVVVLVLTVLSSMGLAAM
T2 sequence (O14521 57-159): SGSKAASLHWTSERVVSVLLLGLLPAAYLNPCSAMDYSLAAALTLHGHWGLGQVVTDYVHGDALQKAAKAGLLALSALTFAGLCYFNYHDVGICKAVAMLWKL
T2 sequence (P31040 43-664 partner): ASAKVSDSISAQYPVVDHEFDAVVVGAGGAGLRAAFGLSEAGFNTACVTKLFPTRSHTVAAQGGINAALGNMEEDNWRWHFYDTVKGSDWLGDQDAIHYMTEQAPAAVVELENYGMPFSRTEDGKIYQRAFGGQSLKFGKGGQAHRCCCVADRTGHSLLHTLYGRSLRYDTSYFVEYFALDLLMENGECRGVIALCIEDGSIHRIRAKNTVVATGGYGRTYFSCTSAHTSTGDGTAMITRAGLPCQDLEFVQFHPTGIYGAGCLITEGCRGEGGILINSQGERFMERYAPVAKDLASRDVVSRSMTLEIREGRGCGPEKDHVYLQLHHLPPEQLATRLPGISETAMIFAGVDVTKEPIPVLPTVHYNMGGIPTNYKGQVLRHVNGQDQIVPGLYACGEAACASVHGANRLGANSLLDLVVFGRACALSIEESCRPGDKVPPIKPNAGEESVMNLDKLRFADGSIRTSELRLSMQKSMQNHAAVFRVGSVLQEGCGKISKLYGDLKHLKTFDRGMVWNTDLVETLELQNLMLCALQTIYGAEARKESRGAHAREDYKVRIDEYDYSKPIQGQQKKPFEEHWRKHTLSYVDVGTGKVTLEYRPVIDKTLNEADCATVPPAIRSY
Description: as §1

SMILES	Inhibition of cI activity (in words) (cI [1])	IC50 (cI [2])	log2FoldChange AARS (LUHMES cells [3]; 0.10 µM)	log2FoldChange AASDHPPT (LUHMES cells [3]; 0.10 µM)	log2FoldChange AATF (LUHMES cells [3]; 0.10 µM)	log2FoldChange ABCA1 (LUHMES cells [3]; 0.10 µM)	log2FoldChange ABCA6 (LUHMES cells [3]; 0.10 µM)	Inhibition of total mitochondrial respiration of intact cells (LUHMES cells [4])	IC50 (cII [5])	log2FoldChange AARS (LUHMES cells [3]; 0.20 µM)	log2FoldChange AASDHPPT (LUHMES cells [3]; 0.20 µM)	log2FoldChange AATF (LUHMES cells [3]; 0.20 µM)	log2FoldChange ABCA1 (LUHMES cells [3]; 0.20 µM)	log2FoldChange ABCA6 (LUHMES cells [3]; 0.20 µM)	Inhibition of cII activity (in words) (cII [6])
COc1cc(CNC(=O)CCCC/C=C/C(C)C)ccc1O [Capsaicin]	no significant response	> 200 µM	-0.12 log2	0.45 log2	-0.07 log2	-0.65 log2	-2.67 log2	weak response	–	–	–	–	–	–	–
Cc1ccccc1C(=O)Nc1cccc(OC(C)C)c1 [Mepronil]	weakly affected cI	–	–	–	–	–	–	–	> 100 µM	0.46 log2	0.19 log2	0.22 log2	0.65 log2	0.20 log2	significant, but weak inhibitor
